Data as given in ChEMBL document CHEMBL5252661 (ACS Med Chem Lett, 2023).
The source made the active and inactive calls. The rule behind the calls is not given here.

What was measured:
Mesenchymal stem cells [1] = assay: Upregulation of PPARgamma mRNA expression in human BMMSC cells at 10 uM in presence of IDX induction medium by qRT-PCR assay; format: functional, cell-based
[2] = Induction of adiponectin secretion in human BMMSC cells assessed as fold increase in adiponectin level at 10 uM in presence of IDX induction medium by ELISA assay; format: functional, Mesenchymal stem cells
[3] = Induction of adiponectin secretion in human BMMSC cells in presence of IDX induction medium by ELISA assay; format: functional, cell-based; conditions: Mesenchymal stem cells
[4] = biological target: T1, Peroxisome proliferator-activated receptor gamma (Homo sapiens, UniProt P37231); assay: Binding affinity to PPARgamma (unknown origin) by TR-FRET-based competitive binding assay
T1 sequence (P37231 whole entry): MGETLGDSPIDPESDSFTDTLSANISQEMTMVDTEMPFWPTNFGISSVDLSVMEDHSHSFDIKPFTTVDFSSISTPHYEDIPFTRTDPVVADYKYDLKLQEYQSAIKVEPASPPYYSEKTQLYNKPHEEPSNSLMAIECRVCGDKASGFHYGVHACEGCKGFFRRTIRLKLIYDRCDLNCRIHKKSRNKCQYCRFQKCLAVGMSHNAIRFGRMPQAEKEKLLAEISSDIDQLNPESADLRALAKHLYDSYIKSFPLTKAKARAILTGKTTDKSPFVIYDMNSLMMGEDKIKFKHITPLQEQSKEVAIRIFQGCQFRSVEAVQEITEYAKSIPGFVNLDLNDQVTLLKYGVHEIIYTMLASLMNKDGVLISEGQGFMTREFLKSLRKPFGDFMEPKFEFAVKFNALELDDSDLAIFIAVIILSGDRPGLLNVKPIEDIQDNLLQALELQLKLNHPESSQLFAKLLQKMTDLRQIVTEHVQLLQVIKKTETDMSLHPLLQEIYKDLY

Mesenchymal stem cells [5] = assay: Induction of adiponectin secretion in human BMMSC cells at 10 uM in presence of IDX induction medium by ELISA assay; format: functional, cell-based
Mesenchymal stem cells [6] = assay: Induction of adiponectin secretion in human BMMSC cells assessed as increase in size of lipid droplets at 10 uM in presence of IDX induction medium by Oil Red O staining based inverted microscopic analysis; format: functional, cell-based
Mesenchymal stem cells [7] = assay: Upregulation of FABP4 mRNA expression in human BMMSC cells at 10 uM in presence of IDX induction medium by qRT-PCR assay; format: functional, cell-based
[8] = biological target: T2, Peroxisome proliferator-activated receptor delta (Homo sapiens) (UniProt Q03181); assay: Binding affinity to PPARdelta (unknown origin) upto 10 uM by TR-FRET-based competitive binding assay
T2 sequence (whole entry): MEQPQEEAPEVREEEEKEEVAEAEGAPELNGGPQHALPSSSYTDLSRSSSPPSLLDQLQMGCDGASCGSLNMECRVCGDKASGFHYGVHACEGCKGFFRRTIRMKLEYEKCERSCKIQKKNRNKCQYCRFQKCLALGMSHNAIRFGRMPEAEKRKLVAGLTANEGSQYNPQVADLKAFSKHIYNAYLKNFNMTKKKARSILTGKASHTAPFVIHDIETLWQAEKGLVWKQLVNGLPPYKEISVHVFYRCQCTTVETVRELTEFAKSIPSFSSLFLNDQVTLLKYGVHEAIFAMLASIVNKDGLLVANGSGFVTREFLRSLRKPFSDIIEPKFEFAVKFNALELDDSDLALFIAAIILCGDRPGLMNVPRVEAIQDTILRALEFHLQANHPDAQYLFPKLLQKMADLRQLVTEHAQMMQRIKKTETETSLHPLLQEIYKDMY

Mesenchymal stem cells [9] = assay: Potency index, ratio of EC50 for chrysin to EC50 for test compound for induction of adiponectin secretion in human BMMSC cells; format: functional
Mesenchymal stem cells [10] = assay: Upregulation of ADIPOQ mRNA expression in human BMMSC cells at 10 uM in presence of IDX induction medium by qRT-PCR assay; format: functional, cell-based
Mesenchymal stem cells [11] = assay: Induction of adiponectin secretion in human BMMSC cells assessed as increase in number of lipid droplets at 10 uM in presence of IDX induction medium by Oil Red O staining based inverted microscopic analysis; format: functional, cell-based
[12] = biological target: T3, Peroxisome proliferator-activated receptor alpha (Homo sapiens) (UniProt Q07869); assay: Binding affinity to PPARalpha (unknown origin) upto 10 uM by TR-FRET-based competitive binding assay
T3 sequence (whole entry): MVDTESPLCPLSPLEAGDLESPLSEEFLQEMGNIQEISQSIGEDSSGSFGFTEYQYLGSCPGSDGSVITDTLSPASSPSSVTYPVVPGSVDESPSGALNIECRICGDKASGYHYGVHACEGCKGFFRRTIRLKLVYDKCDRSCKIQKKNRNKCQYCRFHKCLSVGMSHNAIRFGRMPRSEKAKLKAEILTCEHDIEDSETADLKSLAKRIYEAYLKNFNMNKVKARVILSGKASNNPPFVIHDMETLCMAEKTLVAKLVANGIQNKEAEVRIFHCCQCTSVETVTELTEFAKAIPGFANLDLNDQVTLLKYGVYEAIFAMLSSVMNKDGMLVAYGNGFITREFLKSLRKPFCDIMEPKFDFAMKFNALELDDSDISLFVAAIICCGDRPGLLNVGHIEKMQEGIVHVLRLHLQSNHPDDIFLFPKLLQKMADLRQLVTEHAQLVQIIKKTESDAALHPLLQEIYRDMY

[13] = biological target: T1, Peroxisome proliferator-activated receptor gamma; assay: Partial agonist activity at PPARgamma (unknown origin) by TR-FRET-based competitive binding assay
[14] = biological target: T1, Peroxisome proliferator-activated receptor gamma; assay: Agonist activity at PPARgamma LBD (unknown origin) assessed as increase in recruitment of coactivator RAP250 to PPARgamma LBD by TR-FRET-based nuclear receptor coactivator assay

Structure (SMILES)	fold change (FC) [2]	EC50 [3] [µM]	Activity (Mesenchymal stem cells [5])	Activity [8]	Activity [12]	other results
CC(C)=CCOc1cc(OCC=C(C)C)c2c(=O)cc(-c3ccccc3)oc2c1	4.8	4	Active	inactive	inactive	Activity (Mesenchymal stem cells [1]): Active; Ki [4]: 0.37 µM; Activity (Mesenchymal stem cells [6]): Active; Activity (Mesenchymal stem cells [7]): Active; Ratio EC50 (Mesenchymal stem cells [9]): 9; Activity (Mesenchymal stem cells [10]): Active; Activity (Mesenchymal stem cells [11]): Active
O=c1cc(-c2ccccc2)oc2cc(O)cc(OCc3ccccc3)c12	–	–	Active	inactive	inactive	–
CC(C)=CCOc1cc(OCc2ccccc2)cc2oc(-c3ccccc3)cc(=O)c12	3.3	–	Active	inactive	inactive	–
CCCc1nc2c(C)cc(-c3nc4ccccc4n3C)cc2n1Cc1ccc(-c2ccccc2C(=O)O)cc1	–	4.7	–	–	–	Ki [13]: 1.08 µM
COc1cc(OCc2ccccc2)cc2oc(-c3ccccc3)cc(=O)c12	–	–	–	inactive	inactive	–
O=c1cc(-c2ccccc2)oc2cc(O)cc(OCc3ccc(Cl)cc3)c12	–	–	Active	inactive	inactive	–
O=c1cc(-c2ccccc2)oc2cc(OCc3ccccc3)cc(OCc3ccccc3)c12	–	–	Active	inactive	inactive	–
O=c1cc(-c2ccccc2)oc2cc(OCc3ccccc3)cc(O)c12	–	–	Active	inactive	inactive	–
CC(C)=CCOc1cc(OCc2ccccc2)c2c(=O)cc(-c3ccccc3)oc2c1	3.8	8.5	Active	inactive	inactive	Activity (Mesenchymal stem cells [1]): Active; Ki [4]: 0.55 µM; Activity (Mesenchymal stem cells [6]): Active; EC50 [14]: 19.6 µM; Activity (Mesenchymal stem cells [7]): Active; Ratio EC50 (Mesenchymal stem cells [9]): 9; Activity (Mesenchymal stem cells [10]): Active; Activity (Mesenchymal stem cells [11]): Active
O=c1cc(-c2ccccc2)oc2cc(O)cc(O)c12 [CHRYSIN]	2.3	77.7	Active	inactive	inactive	Activity (Mesenchymal stem cells [6]): Active; Activity (Mesenchymal stem cells [11]): Active
CCc1ccc(CCOc2ccc(CC3SC(=O)NC3=O)cc2)nc1 (centres undefined) [PIOGLITAZONE]	–	0.5	–	–	–	–
C=CCOc1cc(O)cc2oc(-c3ccccc3)cc(=O)c12	–	–	Active	inactive	inactive	–
O=c1cc(-c2ccccc2)oc2cc(O)cc(OCc3ccc(F)cc3)c12	–	–	Active	inactive	inactive	–
